The text below walks through data of patent US20030105046A1, “Interleukin converting enzyme (ICE) and central nervous system damage” (The General Hospital Corporation, priority 1997, published 2003).

The subject of assay [1] is apoptosis in an cell-free system. To be noted: Nicholson et al., Nature 376 (1995), read-out: Dose causing 50% inhibition of apoptosis; cited from earlier work.
Assay [2] relates to traumatic brain injury in C57BL/6 mice. Briefly: Weight drop traumatic brain injury, lesion volume by TTC staining. It counts as in vivo, mouse. The protocol:
Brain trauma experiments and lesion quantification were performed essentially as described (Chan, P. H., et al., Ann. NY Acad. Sci. 738:93-103 (1994)). Spontaneously ventilating adult mice were initially anesthetized with halothane in 70% N2O and 30% O2, and fixed in a stereotactic frame. Before trauma, an atraumatic craniectomy was performed by removing the right parietal bone posterior to the coronal, lateral to the sagittal, and anterior to the lambdoid suture. Laterally, the craniectomy was extended to the insertion of the temporalis muscle. […] A 20 g weight was dropped inside a cylinder from a height of 150 mm onto the piston (final speed v=1.70 m/s). Twenty-four hours after trauma, brains were removed and sectioned into five coronal (2 mm) slices and stained with 2% 2,3,5-triphenyl tetrazolium chloride (TTC) as described for a weight drop trauma model (Chan, P. H., et al., Ann. NY Acad. Sci. 738:93-103 (1994)). Surgical procedure as well as quantification of lesion size was performed by an investigator naive to the animal identity. Lesion volume was calculated using an image analysis system (M4, Imaging Research, St. Catherines, Ontario, Canada) from the total lesion volume integrated from the volumes of each single section, after subtracting the volume of the deficient cortex as caused by piston penetration. The volume of the piston penetration was calculated as that of a cylinder (pr^2h=3.14×1.5^2×3 mm^3=21.2 mm^3), where r is the radius of the piston, and h the depth of penetration. The trauma protocol was approved by the IACUC. The NSE-M17Z and wild-type littermate mice were bred from C57BL/6 background, and the wild-type mice used for zVAD-fink injection experiments were C57BL/6 (Taconic Farms, Germantown, N.Y.). NSE-M17Z mice were genotyped as previously described (Friedlander, R. M., et al., J. Exp. Med. 185:933-940 (1997)). zVAD-fmk (480 ng) or vehicle (DMSO 0.4%) was injected i.c.v. (2 μl; bregma −0.9 mm lateral, −0.1 mm posterior, −3.1 mm deep) 1 hour before or 1 hour after trauma.
Data are presented as mean±SEM. Statistical comparisons were made by Student's t-test. For comparison of lesion size two-way ANOVA followed by Tukey posthoc tests was applied. P<0.05 was considered statistically significant. For statistical evaluation by Student's t-test, data on OH production was log transformed.

Assay [3] has as its target Interleukin-1beta converting enzyme (ICE; caspase-1), wild-type murine, endogenous (mouse) (UniProt P29452). The assay is described as follows: cell-based or functional assay.
UniProt P29452, sequence (P29452 whole entry D56N): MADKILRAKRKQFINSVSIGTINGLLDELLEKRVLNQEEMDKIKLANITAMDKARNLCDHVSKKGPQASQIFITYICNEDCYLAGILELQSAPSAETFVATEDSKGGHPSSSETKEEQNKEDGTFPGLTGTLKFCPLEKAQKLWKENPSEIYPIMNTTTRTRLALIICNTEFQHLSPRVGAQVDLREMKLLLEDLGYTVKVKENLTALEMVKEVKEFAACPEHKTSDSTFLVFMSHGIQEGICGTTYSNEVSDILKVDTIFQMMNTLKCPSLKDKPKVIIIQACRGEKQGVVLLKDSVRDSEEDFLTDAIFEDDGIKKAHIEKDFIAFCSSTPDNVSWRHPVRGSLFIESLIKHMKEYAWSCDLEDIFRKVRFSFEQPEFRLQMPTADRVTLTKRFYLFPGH

Consider Ac-DEVD-CHO, for which, in assay [1], the IC50 is 1000 nM.
On to “N-benzyloxycarbonyl-Val-Ala-Asp-fluoromethylketone [zVAD-fink]”, for which the “Total lesion volume vs. vehicle (significance)” value in assay [2] (480 ng i.c.v. 1 hour after trauma, 24 hours following impact) is listed as “not significantly different”. Further, in assay [2] (480 ng i.c.v. 1 hour after trauma, P<0.05, n=5), the “Size of lesion in the two most anterior sections (2-6 mm) vs. vehicle” value is reported as “significantly reduced”. Also, in assay [2] (480 ng i.c.v. 1 hour prior to impact, lesion assessed 24 hours following trauma), the “Reduction of total lesion volume vs. vehicle-injected mice” value was determined as 53%. For the same substance, the “Reduction of lesion volume vs. vehicle-injected mice” value in assay [2] (480 ng i.c.v. one hour following trauma, lesion assessed 24 hours following trauma) stood at 19%.
Consider “fused mutant ICE (C284G)-lacZ protein (M17Z), expressed in neurons of NSE-M17Z transgenic mice (from UniProt P29452 1-402)”, for which the mature IL-1β in whole brain lysates after systemic LPS challenge (ELISA specific for mature IL-1β) in assay [3] worked out at 74.7 % less.
